{"source": "paper PMC5603573", "about": "“Cyclipostins and Cyclophostin analogs as promising compounds in the fight against tuberculosis” (Scientific Reports, 2017)", "key": {"M. tb mc^26230-TesA": {"test_system": "M. tb mc^26230-TesA", "assay": "microbe, parasite or virus in culture", "format": "cell-based, Mycobacterium tuberculosis"}, "M. tb mc^26230 WT": {"test_system": "M. tb mc^26230 WT", "assay": "microbe, parasite or virus in culture", "format": "cell-based"}, "M. tb mc^26230-Ag85A": {"test_system": "M. tb mc^26230-Ag85A", "assay": "microbe, parasite or virus in culture", "format": "cell-based, Mycobacterium tuberculosis"}, "M. tb mc^26230-LipH": {"test_system": "M. tb mc^26230-LipH", "assay": "microbe, parasite or virus in culture", "format": "cell-based, Mycobacterium tuberculosis", "conditions": "for MIC50: REMA"}, "[1]": {"test_system": "M. tb mc^26230-empty vector", "assay": "REMA, empty vector strain", "format": "cell-based, Mycobacterium tuberculosis"}, "M. tb mc^26230-Rv0183": {"test_system": "M. tb mc^26230-Rv0183", "assay": "microbe, parasite or virus in culture", "format": "cell-based, Mycobacterium tuberculosis"}, "M. tb mc^26230-HsaD": {"test_system": "M. tb mc^26230-HsaD", "assay": "microbe, parasite or virus in culture", "format": "cell-based, Mycobacterium tuberculosis", "conditions": "for MIC50: REMA"}, "M. tb mc^26230-Ag85C": {"test_system": "M. tb mc^26230-Ag85C", "assay": "microbe, parasite or virus in culture", "format": "cell-based, Mycobacterium tuberculosis"}, "[2]": {"conditions": "Mycobacterium tuberculosis, REMA"}}, "note": "Read-outs that look alike come from different tables or passages of the source.", "data": [{"compound": "CCCCCCCCCCCCCCCCOP1(=O)OCCC(C(=O)OC)=C(C)O1", "note": "(stereo not drawn) [CyC 17]", "values": [{"measurement": "MIC50 ratio mutant/WT", "setting": "M. tb mc^26230-TesA", "result": 0.95}, {"measurement": "MIC50", "setting": "M. tb mc^26230-TesA; [2]", "result": "0.52 ± 0.012", "unit": "µM"}, {"measurement": "MIC50 ratio mutant/WT", "setting": "M. tb mc^26230 WT", "result": 1.00}, {"measurement": "MIC50 ratio mutant/WT", "setting": "M. tb mc^26230-Ag85A", "result": 1.00}, {"measurement": "MIC50", "setting": "M. tb mc^26230-Ag85A; [2]", "result": "0.55 ± 0.014", "unit": "µM"}, {"measurement": "increase in the MIC50 value compared to WT strain", "setting": "M. tb mc^26230-LipH", "result": "around 1.3 fold"}, {"measurement": "MIC50 ratio mutant/WT", "setting": "M. tb mc^26230-LipH; M. tb mc^26230-LipH", "result": 1.31}, {"measurement": "MIC50", "setting": "M. tb mc^26230-LipH; M. tb mc^26230-LipH", "result": "0.72 ± 0.020", "unit": "µM"}, {"measurement": "MIC50", "setting": "M. tb mc^26230-LipH; Mycobacterium tuberculosis, M. tb mc^26230-LipH, read-out: MIC50", "result": "0.72 ± 0.02", "unit": "µM"}, {"measurement": "MIC50 ratio mutant/WT", "setting": "[1]", "result": 0.95}, {"measurement": "MIC50 ratio mutant/WT", "setting": "M. tb mc^26230-Rv0183; M. tb mc^26230-Rv0183", "result": 0.80}, {"measurement": "MIC50", "setting": "M. tb mc^26230-Rv0183; Mycobacterium tuberculosis, M. tb mc^26230-Rv0183, REMA", "result": "0.44 ± 0.013", "unit": "µM"}, {"measurement": "increase in MIC50 value compared to WT strain", "setting": "M. tb mc^26230-HsaD", "result": 2.2, "unit": "fold"}, {"measurement": "MIC50 ratio mutant/WT", "setting": "M. tb mc^26230-HsaD; M. tb mc^26230-HsaD", "result": 2.18}, {"measurement": "MIC50", "setting": "M. tb mc^26230-HsaD; M. tb mc^26230-HsaD", "result": "1.20 ± 0.026", "unit": "µM"}, {"measurement": "MIC50", "setting": "M. tb mc^26230-HsaD; Mycobacterium tuberculosis, M. tb mc^26230-HsaD, read-out: MIC50", "result": "1.2 ± 0.026", "unit": "µM"}, {"measurement": "MIC50 ratio mutant/WT", "setting": "M. tb mc^26230-Ag85C", "result": 0.98}, {"measurement": "MIC50", "setting": "M. tb mc^26230-Ag85C; [2]", "result": "0.54 ± 0.009", "unit": "µM"}]}]}
